For one assay, the system named is MCF-7 cells. Nature of the assay: Breast Cancer Cell Viability Assay (MCF-7, CellTiter-Glo). Type of assay: cell-based. The following applies: 5 days' compound exposure; for IC50: Homo sapiens, MCF7, 120 h. How it is done:
MCF-7 cells were adjusted to a concentration of 20,000 cells per mL in RPMI containing 10% FBS and 20 mM HEPES. 16 microliters of the cell suspension (320 cells) was added to each well of a 384 well plate, and the cells were incubated overnight to allow the cells to adhere. The following day an eleven point, serial semilog dilution of each compound was added to the cells in 16 μL at a final concentration ranging from 0.3-0.000003 μM. After 5 days' compound exposure, 16 μL of CellTiter-GLo (Promega, Madison Wis.) was added to the cells the relative luminescence units (RLUs) of each well was determined CellTiter-Glo added to 32 μL of medium without cells was used to obtain a background value. The Percent viability of each sample was determined as follows: (RLU sample-RLU background/RLU untreated cells-RLU background)×100=% viability.
In general terms: Cellular ATP, detected with luciferase, serves as a proxy for viable cell number.

A further assay deals with T1, ER-α (Homo sapiens, UniProt P03372).
T1 sequence (P03372 1-595): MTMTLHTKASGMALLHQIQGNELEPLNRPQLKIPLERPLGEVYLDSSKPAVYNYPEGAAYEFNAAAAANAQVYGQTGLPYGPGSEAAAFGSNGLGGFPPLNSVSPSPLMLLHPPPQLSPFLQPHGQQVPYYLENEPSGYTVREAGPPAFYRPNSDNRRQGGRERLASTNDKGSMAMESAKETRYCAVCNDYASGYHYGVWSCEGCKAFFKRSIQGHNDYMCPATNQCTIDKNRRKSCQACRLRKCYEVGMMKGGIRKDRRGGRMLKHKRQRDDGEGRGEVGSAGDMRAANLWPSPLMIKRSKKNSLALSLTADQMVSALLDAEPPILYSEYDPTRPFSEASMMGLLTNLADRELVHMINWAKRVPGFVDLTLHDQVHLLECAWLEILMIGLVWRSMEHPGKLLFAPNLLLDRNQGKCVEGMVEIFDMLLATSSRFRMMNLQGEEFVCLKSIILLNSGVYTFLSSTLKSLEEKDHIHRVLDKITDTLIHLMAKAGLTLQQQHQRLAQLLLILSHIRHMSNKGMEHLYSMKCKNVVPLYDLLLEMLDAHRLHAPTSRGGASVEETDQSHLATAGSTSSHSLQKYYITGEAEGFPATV
Nature of the assay: Breast Cancer Cell ER-α In Cell Western Assay (SP1). In kind it is cell-based. Conditions: MCF-7 cells, SP1 antibody, 4 or 24 hr post compound addition; for Emax: MCF7, read-out: ER-α In Cell Western Assay (SP1) Max Response; for DC50: read-out: ER-α In Cell Western Assay (SP1) IC50. How it is done: MCF-7 cells were adjusted to a concentration of 200,000 cells per mL in RPMI containing 10% charcoal-stripped FBS and 20 mM HEPES. 16 microliters of the cell suspension (3200 cells) was added to each well of a poly-D-lysine 384 well plate, and the cells were incubated overnight to allow the cells to adhere. The following day an eleven point, serial semilog dilution of each compound was added to the cells in 16 μL at a final concentration ranging from 0.3-0.000003 μM. At 4 or 24 hr post compound addition, the cells were fixed (10% formalin in PBS) for 20 minutes. Cells were permeablized in PBS 0.1% Triton and blocked with LICOR blocking buffer (50 μL1/well, 90′). The wells were then incubated overnight at 4° C. with SP1 rabbit monoclonal Ab (Thermo Scientific) diluted 1:1000 in LICOR blocking buffer/0.1% Tween-20. Wells which were treated with blocking buffer with Tween but no antibody were used as a background control. Wells were washed with 0.1% Tween-20/PBS and then incubated in goat anti-rabbit IRDye™ 800CW (LICOR Inc.; 1:1000) and DRAQ5 DNA dye (1:2000 for 2 mM stock) diluted in LICOR blocking buffer containing 0.1% Tween-20 and 0.01% SDS for 60 minutes. Cells were washed (50 μl/well, 5′ each) in 0.1% Tween-20/PBS. Plates were scanned on a LICOR Odyssey infrared imaging system. Integrated intensities in the 800 nm channel and 700 nm channel were measured to determine levels of ER and DNA respectively. Percent ER levels were determined as follows: (Integrated intensity 800 nm sample/integrated intensity 700 nm sample)/(Integrated intensity 800 nm untreated cells/integrated intensity 700 nm untreated cells)×100=% ER levels.

Molecules are shown by their SMILES. Bounds are passed on as bounds.

What is called IC50 is the concentration needed to halve the response being measured. Low values mean higher potency, high ones lower potency. As for `CC/C(=C(/c1ccc(/C=C/C(=O)O)cc1)c1ccc2[nH]ncc2c1)c1ccc(F)c(C)c1` [Compound 29, (E)-3-(4-((E)-2-(4-Fluoro-3-methylphenyl)-1-(1H-indazol-5-yl)but-1-en-1-yl)phenyl)acrylic acid], in the assay with MCF-7 cells, the “MCF7 Viability Assay Max Response” value is given as “++ (++ = a single % value ≧ 40%)” and the IC50 is no more than 100 nM. At ER-α, the Emax was no less than 40% and the DC50 is no more than 100 nM.

As for `CC/C(=C(/c1ccc(/C=C/C(=O)O)cc1)c1ccc2[nH]ncc2c1)c1ccccc1C(F)(F)F` [Compound 19, (E)-3-(4-((E)-1-(1H-Indazol-5-yl)-2-(2-(trifluoromethyl)phenyl)but-1-en-1-yl)phenyl)acrylic acid], in the assay with MCF-7 cells, the “MCF7 Viability Assay Max Response” value is recorded as “++ (++ = a single % value ≧ 40%)” and the IC50 was no more than 100 nM. Besides, at ER-α, the Emax was no less than 40% and the DC50 was no more than 100 nM.

Consider `O=C(O)/C=C/c1ccc(/C(=C(/CCF)c2ccc(F)cc2Cl)c2ccc3[nH]ncc3c2)cc1` [Compound 120, (E)-3-(4-((E)-2-(2-Chloro-4-fluorophenyl)-4-fluoro-1-(1H-indazol-5-yl)but-1-en-1-yl)phenyl)acrylic acid], for which, in the assay with MCF-7 cells, the “MCF7 Viability Assay Max Response” value is given as “++ (++ = a single % value ≧ 40%)” and the half-maximal inhibitory concentration (IC50) was no more than 100 nM. Besides, at ER-α, the Emax was no less than 40% and the DC50 is no more than 100 nM.

For the molecule `O=C(O)/C=C/c1ccc(/C(=C(/CCO)c2ccccc2)c2ccc3[nH]ncc3c2)cc1` [Compound 46, (E)-3-(4-((E)-4-Hydroxy-1-(1H-indazol-5-yl)-2-phenylbut-1-en-1-yl)phenyl)acrylic acid], in the assay on MCF-7 cells, the “MCF7 Viability Assay Max Response” value is on record as “+ (+ = a single % value < 40%)” and the IC50 was greater than 100 nM. Besides, on ER-α, the Emax is no less than 40% and the DC50 is greater than 100 nM.

In the case of `O=C(O)/C=C/c1ccc(/C(=C(/CC2CC2)c2ccccc2)c2ccc3[nH]ncc3c2)cc1` [Compound 56, (E)-3-(4-((E)-3-Cyclopropyl-1-(1H-indazol-5-yl)-2-phenylprop-1-en-1-yl)phenyl)acrylic acid], in the assay on MCF-7 cells, the “MCF7 Viability Assay Max Response” value is “++ (++ = a single % value ≧ 40%)” and the IC50 was no more than 100 nM. Further, on ER-α, the Emax was no less than 40% and the DC50 was no more than 100 nM.

For the molecule `CC/C(=C(/c1ccc(/C=C/C(=O)O)cc1)c1cc(Cl)c2[nH]ncc2c1)c1ccccc1` [Compound 35, (E)-3-(4-((E)-1-(7-Chloro-1H-indazol-5-yl)-2-phenylbut-1-en-1-yl)phenyl)acrylic acid], in the assay on MCF-7 cells, the “MCF7 Viability Assay Max Response” value is given as “++ (++ = a single % value ≧ 40%)” and the IC50 is no more than 100 nM. Moreover, on ER-α, the Emax is no less than 40% and the DC50 was no more than 100 nM.

`CC/C(=C(/c1ccc(/C=C/C(=O)O)cc1)c1ccc2[nH]ncc2c1)c1cccc(CO)c1` [Compound 6, (E)-3-(4-((E)-2-(3-(Hydroxymethyl)phenyl)-1-(1H-indazol-5-yl)but-1-en-1-yl)phenyl)acrylic acid]: in the assay on MCF-7 cells, the “MCF7 Viability Assay Max Response” value is on record as “++ (++ = a single % value ≧ 40%)” and the IC50 was greater than 100 nM. On ER-α, the Emax was no less than 40% and the DC50 is no more than 100 nM.

For `Cc1cc(Cl)ccc1/C(=C(\c1ccc(/C=C/C(=O)O)cc1)c1ccc2[nH]ncc2c1F)C1CC1` [Compound 72, (E)-3-(4-((E)-2-(4-Chloro-2-methylphenyl)-2-cyclopropyl-1-(4-fluoro-1H-indazol-5-yl)vinyl)phenyl)acrylic acid], in the assay with MCF-7 cells, the “MCF7 Viability Assay Max Response” value was “++ (++ = a single % value ≧ 40%)” and the IC50 is no more than 100 nM. At ER-α, the Emax is no less than 40% and the DC50 is no more than 100 nM.

As to `CCCC/C(=C(/c1ccc(/C=C/C(=O)O)cc1)c1ccc2[nH]ncc2c1)c1ccccc1` [Compound 59, (E)-3-(4-((E)-1-(1H-Indazol-5-yl)-2-phenylhex-1-en-1-yl)phenyl)acrylic acid], in the assay on MCF-7 cells, the “MCF7 Viability Assay Max Response” value is on record as “++ (++ = a single % value ≧ 40%)” and the IC50 was no more than 100 nM. Moreover, on ER-α, the Emax was no less than 40% and the DC50 was no more than 100 nM.

The values are drawn from patent US8455534B2, “Estrogen receptor modulators and uses thereof” (Aragon Pharmaceuticals, Inc., priority 2010, dated 2013).
